Test results as given in patent publication US9233983B2, “Substituted hetero-bicyclic compounds, compositions and medicinal applications thereof” (ADVINUS THERAPEUTICS LIMITED, priority 2012, dated 2016).

Legend:
[1] = target: human Bruton's Tyrosine Kinase (Btk) (Homo sapiens (Human), UniProt Q06187); assay: Recombinant Human Bruton's Tyrosine Kinase (Btk) Inhibition Assay (HTRF KinEASE-TK); format: biochemical; details: 20 ng/ml rhBtk, 77 μM ATP (KM), 1 μM TK-Biotin substrate, 90 min; read-out: hBTK IC50
human Bruton's Tyrosine Kinase (Btk), sequence (Q06187 whole entry): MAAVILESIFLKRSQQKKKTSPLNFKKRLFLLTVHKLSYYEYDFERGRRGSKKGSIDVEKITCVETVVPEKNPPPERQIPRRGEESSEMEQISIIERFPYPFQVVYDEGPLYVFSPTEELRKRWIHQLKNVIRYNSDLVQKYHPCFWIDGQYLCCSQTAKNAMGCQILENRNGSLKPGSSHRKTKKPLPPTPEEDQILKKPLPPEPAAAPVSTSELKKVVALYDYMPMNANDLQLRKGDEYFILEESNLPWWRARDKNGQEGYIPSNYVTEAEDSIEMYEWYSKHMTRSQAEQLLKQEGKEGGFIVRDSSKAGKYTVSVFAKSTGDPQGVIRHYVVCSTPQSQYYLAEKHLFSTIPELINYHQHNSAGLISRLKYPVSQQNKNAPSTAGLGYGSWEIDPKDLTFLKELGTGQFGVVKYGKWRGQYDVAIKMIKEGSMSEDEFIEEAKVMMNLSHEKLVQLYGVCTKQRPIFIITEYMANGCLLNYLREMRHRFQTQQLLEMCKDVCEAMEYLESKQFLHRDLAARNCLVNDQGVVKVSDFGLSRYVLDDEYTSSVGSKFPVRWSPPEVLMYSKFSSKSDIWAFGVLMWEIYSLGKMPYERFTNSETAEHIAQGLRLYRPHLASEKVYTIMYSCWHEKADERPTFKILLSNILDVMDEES

mouse splenocytes = assay: Inhibition of B Cell Activation as Measured by CD69 Expression in Mouse Splenocytes; format: cell-based; details: Splenocyte; C57/BL6 splenocytes, 3 ug/mL goat anti-mouse IgM, 18-20 hrs, CD69+ve cells within CD19; read-out: Mouse spleenocyte IC50
In short: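 Total mouse splenocytes pre-incubated with compounds (half-log dilutions; DMSO 200× stocks from 2 mM) 30 min at 37 °C, then stimulated with 3 ug/mL anti-mouse IgM for 18-20 hrs. CD69+ cells within CD19+ B cells quantified by flow cytometry; IC50 from variable-slope sigmoid dose-response fit.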

SMILES	IC50 [1] [µM]	IC50 (mouse splenocytes) [µM]
Cc1c(-c2ncnc3[nH]c(-c4ccc(C(=O)N5CCC(O)CC5)cc4)cc23)cccc1N1CCc2cc(C3CC3)ccc2C1=O [Example K-16, 6-cyclopropyl-2-[3-[6-[4-(4-hydroxypiperidine-1-carbonyl)phenyl]-7H-pyrrolo[2,3-d]pyrimidin-4-yl]-2-methyl-phenyl]-3,4-dihydroisoquinolin-1-one]	0.021	> 1
Cc1c(-c2ncnc3[nH]c(-c4ccc(C(=O)N5CCNCC5)cc4)cc23)cccc1N1CCc2cc(C3CC3)ccc2C1=O [Example K-19, 6-cyclopropyl-2-[2-methyl-3-[6-[4-(piperazine-1-carbonyl)phenyl]-7H-pyrrolo[2,3-d]pyrimidin-4-yl]phenyl]-3,4-dihydroisoquinolin-1-one]	0.036	> 1
Cc1c(-c2ncnc3[nH]c(-c4ccc(C(=O)N5CCC(O)CC5)cc4)cc23)cccc1-n1ncc2cc(C3CC3)ccc2c1=O [Example K-20, 6-cyclopropyl-2-[3-[6-[4-(4-hydroxypiperidine-1-carbonyl)phenyl]-7H-pyrrolo[2,3-d]pyrimidin-4-yl]-2-methyl-phenyl]phthalazin-1-one]	0.044	0.195
NC(=O)c1ccc(-c2cc3c(-c4cccc(N5CCOc6cc(C7CC7)ccc6C5=O)c4CO)ccnc3[nH]2)nc1 [Example K-22, 6-[4-[3-(8-cyclopropyl-5-oxo-2,3-dihydro-1,4-benzoxazepin-4-yl)-2-(hydroxymethyl)phenyl]-1H-pyrrolo[2,3-b]pyridin-2-yl]pyridine-3-carboxamide]	0.002	0.008
CC1(O)CCN(C(=O)c2ccc(-c3cc4c(-c5cccc(N6CCOc7cc(C8CC8)ccc7C6=O)c5CO)ccnc4[nH]3)nc2)CC1 [Example L-1, 8-cyclopropyl-4-[2-(hydroxymethyl)-3-[2-[5-(4-hydroxy-4-methyl-piperidine-1-carbonyl)-2-pyridyl]-1H-pyrrolo[2,3-b]pyridin-4-yl]phenyl]-2,3-dihydro-1,4-benzoxazepin-5-one]	0.008	0.067
CC1(O)CCN(C(=O)c2ccc(-c3cc4c(-c5cccc(N6CCOc7cc(C8CC8)ccc7C6=O)c5CO)ccnc4[nH]3)cc2)CC1 [Example L-2, 8-cyclopropyl-4-[2-(hydroxymethyl)-3-[2-[4-(4-hydroxy-4-methyl-piperidine-1-carbonyl)phenyl]-1H-pyrrolo[2,3-b]pyridin-4-yl]phenyl]-2,3-dihydro-1,4-benzoxazepin-5-one]	0.009	0.087
CC1(O)CCN(C(=O)c2ccc(-c3cc4c(-c5cccc(N6CCOc7cc(C8CC8)cc(F)c7C6=O)c5CO)ccnc4[nH]3)nc2)CC1 [Example L-3, 8-cyclopropyl-6-fluoro-4-[2-(hydroxymethyl)-3-[2-[5-(4-hydroxy-4-methyl-piperidine-1-carbonyl)-2-pyridyl]-1H-pyrrolo[2,3-b]pyridin-4-yl]phenyl]-2,3-dihydro-1,4-benzoxazepin-5-one]	0.008	0.021
Cc1c(-c2nc(N)nc3[nH]c(-c4ccc(CN5CCN(C)CC5)cc4)cc23)cccc1N1CCOc2cc(C3CC3)ccc2C1=O [Example N-1, 4-[3-[2-amino-6-[4-[(4-methylpiperazin-1-yl)methyl]phenyl]-7H-pyrrolo[2,3-d]pyrimidin-4-yl]-2-methyl-phenyl]-8-cyclopropyl-2,3-dihydro-1,4-benzoxazepin-5-one]	0.033	0.061
Cc1c(-c2nc(N)nc3[nH]c(-c4ccc(C(=O)N5CCOCC5)cc4)cc23)cccc1N1CCOc2cc(C3CC3)ccc2C1=O [Example O-1, 4-[3-[2-amino-6-[4-(morpholine-4-carbonyl)phenyl]-7H-pyrrolo[2,3-d]pyrimidin-4-yl]-2-methyl-phenyl]-8-cyclopropyl-2,3-dihydro-1,4-benzoxazepin-5-one]	0.055	0.171
CN(C)C(=O)N1CC=C(c2cc3c(-c4cccc(N5CCOc6cc(C7CC7)ccc6C5=O)c4CO)ccnc3[nH]2)CC1 [Example P-5, 4-[4-[3-(8-cyclopropyl-5-oxo-2,3-dihydro-1,4-benzoxazepin-4-yl)-2-(hydroxymethyl)phenyl]-1H-pyrrolo[2,3-b]pyridin-2-yl]-N,N-dimethyl-3,6-dihydro-2H-pyridine-1-carboxamide]	0.002	0.0146
CC(C)N1CC(n2cnc(-c3cc4c(-c5cccc(N6CCOc7cc(C8CC8)ccc7C6=O)c5CO)ccnc4[nH]3)c2)C1 [Example P-9, 8-cyclopropyl-4-[2-(hydroxymethyl)-3-[2-[1-(1-isopropylazetidin-3-yl)imidazol-4-yl]-1H-pyrrolo[2,3-b]pyridin-4-yl]phenyl]-2,3-dihydro-1,4-benzoxazepin-5-one]	0.007	0.104
CN(C)C(=O)N1CC=C(c2cc3c(-c4cccc(N5CCOc6cc(C(C)(C)O)ccc6C5=O)c4CO)ccnc3[nH]2)CC1 [Example P-10, 4-[4-[2-(hydroxymethyl)-3-[8-(1-hydroxy-1-methyl-ethyl)-5-oxo-2,3-dihydro-1,4-benzoxazepin-4-yl]phenyl]-1H-pyrrolo[2,3-b]pyridin-2-yl]-N,N-dimethyl-3,6-dihydro-2H-pyridine-1-carboxamide]	0.006	0.094
CN(C)C(=O)N1CC=C(c2cc3c(-c4cccc(N5CCOc6cc(C7CC7)cc(F)c6C5=O)c4CO)ccnc3[nH]2)CC1 [Example P-14, 4-[4-[3-(8-cyclopropyl-6-fluoro-5-oxo-2,3-dihydro-1,4-benzoxazepin-4-yl)-2-(hydroxymethyl)phenyl]-1H-pyrrolo[2,3-b]pyridin-2-yl]-N,N-dimethyl-3,6-dihydro-2H-pyridine-1-carboxamide]	0.001	0.0058
CC1(O)CN(C(=O)N2CC=C(c3cc4c(-c5cccc(N6CCOc7cc(C8CC8)cc(F)c7C6=O)c5CO)ccnc4[nH]3)CC2)C1 [Example P-15, 8-cyclopropyl-6-fluoro-4-[2-(hydroxymethyl)-3-[2-[1-(3-hydroxy-3-methyl-azetidine-1-carbonyl)-3,6-dihydro-2H-pyridin-4-yl]-1H-pyrrolo[2,3-b]pyridin-4-yl]phenyl]-2,3-dihydro-1,4-benzoxazepin-5-one]	0.001	0.0147
O=C(N1CC=C(c2cc3c(-c4cccc(N5CCOc6cc(C7CC7)cc(F)c6C5=O)c4CO)ccnc3[nH]2)CC1)N1CCOCC1 [Example P-18, 8-cyclopropyl-6-fluoro-4-[2-(hydroxymethyl)-3-[2-[1-(morpholine-4-carbonyl)-3,6-dihydro-2H-pyridin-4-yl]-1H-pyrrolo[2,3-b]pyridin-4-yl]phenyl]-2,3-dihydro-1,4-benzoxazepin-5-one]	0.0017	0.0054
CCN(CC)C(=O)N1CC=C(c2cc3c(-c4cccc(N5CCOc6cc(C7CC7)cc(F)c6C5=O)c4CO)ccnc3[nH]2)CC1 [Example P-19, 4-[4-[3-(8-cyclopropyl-6-fluoro-5-oxo-2,3-dihydro-1,4-benzoxazepin-4-yl)-2-(hydroxymethyl)phenyl]-1H-pyrrolo[2,3-b]pyridin-2-yl]-N,N-diethyl-3,6-dihydro-2H-pyridine-1-carboxamide]	0.0146	0.02
O=C1c2c(F)cc(C3CC3)cc2OCCN1c1cccc(-c2ccnc3[nH]c(C4=CCN(C5CCOC5)CC4)cc23)c1CO (centres unmarked) [Example P-21, 8-cyclopropyl-6-fluoro-4-[2-(hydroxymethyl)-3-[2-(1-tetrahydrofuran-3-yl-3,6-dihydro-2H-pyridin-4-yl)-1H-pyrrolo[2,3-b]pyridin-4-yl]phenyl]-2,3-dihydro-1,4-benzoxazepin-5-one]	0.004	0.059
O=C(CN1CC=C(c2cc3c(-c4cccc(N5CCOc6cc(C7CC7)cc(F)c6C5=O)c4CO)ccnc3[nH]2)CC1)N1CCC1 [Example P-22, 4-[3-[2-[1-[2-(azetidin-1-yl)-2-oxo-ethyl]-3,6-dihydro-2H-pyridin-4-yl]-1H-pyrrolo[2,3-b]pyridin-4-yl]-2-(hydroxymethyl)phenyl]-8-cyclopropyl-6-fluoro-2,3-dihydro-1,4-benzoxazepin-5-one]	0.0012	0.057
CC(C)(O)CN1CC=C(c2cc3c(-c4cccc(N5CCOc6cc(C7CC7)cc(F)c6C5=O)c4CO)ccnc3[nH]2)CC1 [Example P-23, 8-cyclopropyl-6-fluoro-4-[2-(hydroxymethyl)-3-[2-[1-(2-hydroxy-2-methyl-propyl)-3,6-dihydro-2H-pyridin-4-yl]-1H-pyrrolo[2,3-b]pyridin-4-yl]phenyl]-2,3-dihydro-1,4-benzoxazepin-5-one]	0.0014	0.075
CC(=O)N1CC=C(c2cc3c(-c4cccc(N5CCOc6cc(C7CC7)cc(F)c6C5=O)c4CO)ccnc3[nH]2)CC1 [Example P-24, 4-[3-[2-(1-acetyl-3,6-dihydro-2H-pyridin-4-yl)-1H-pyrrolo[2,3-b]pyridin-4-yl]-2-(hydroxymethyl)phenyl]-8-cyclopropyl-6-fluoro-2,3-dihydro-1,4-benzoxazepin-5-one]	0.0036	0.011
O=C1c2c(F)cc(C3CC3)cc2OCCN1c1cccc(-c2ccnc3[nH]c(C4=CCN(C5CCOCC5)CC4)cc23)c1CO [Example P-26, 8-cyclopropyl-6-fluoro-4-[2-(hydroxymethyl)-3-[2-(1-tetrahydropyran-4-yl-3,6-dihydro-2H-pyridin-4-yl)-1H-pyrrolo[2,3-b]pyridin-4-yl]phenyl]-2,3-dihydro-1,4-benzoxazepin-5-one]	0.0034	0.162
N#CCC(=O)N1CC=C(c2cc3c(-c4cccc(N5CCOc6cc(C7CC7)cc(F)c6C5=O)c4CO)ccnc3[nH]2)CC1 [Example P-27, 3-[4-[4-[3-(8-cyclopropyl-6-fluoro-5-oxo-2,3-dihydro-1,4-benzoxazepin-4-yl)-2-(hydroxymethyl)phenyl]-1H-pyrrolo[2,3-b]pyridin-2-yl]-3,6-dihydro-2H-pyridin-1-yl]-3-oxo-propanenitrile]	0.0012	0.05
